# Reference: patent US7396814B2, “Metallopeptide compositions for treatment of sexual dysfunction” (Palatin Technologies, Inc., priority 1995, dated 2008)
# Non-standard residues stand in square brackets, D forms with d. *: point of attachment. dPhe(4-Cl) = N[C@H](Cc1ccc(Cl)cc1)C(=O)O; Heptanoyl = CCCCCCC(=O)*; Nle = CCCC[C@H](N)C(=O)O; Bn = c1ccc(C*)cc1
# Biological target: T1, hMC4-R (Homo sapiens, UniProt P32245)
# T1 construct: expressed in transfected cells
# Test: Competitive inhibition binding assay, 125I-NDP-MSH, hMC4-R
# Settings: 1 μM metallopeptide; 0.4 nM 125I-NDP-MSH; hMC4-R membranes
# Experimental: (§1) A competitive inhibition binding assay was conducted using membranes prepared from hMC3-R, hMC4-R, hMC5-R, and B-16 mouse melanoma cells (containing MC1-R) using 0.4 nM ^125I-NDP-MSH (0.2 nM for MC1-R) (New England Nuclear, Boston, Mass., USA) in 50 mM HEPES buffer containing 1 mM MgCl2, 2 mM CaCl2, and 5 mM KCl, at pH 7.2. The assay tube also contained a chosen concentration of the metallopeptides of this invention, at a 1 μM concentration, for determining inhibition of the binding of ^125I-NDP-MSH to its receptor. Non-specific binding was measured by complete inhibition of binding of ^125I-NDP-MSH in the assay in the presence of 1 μM α-MSH. Incubation was for 90 minutes at 37° C., after which the assay mixture was filtered and the membranes washed three times with ice cold buffer. The filter was dried and counted in a gamma counter for remaining radioactivity bound to the membranes. 100% specific binding was defined as the difference in radioactivity (cpm) bound to cell membranes in the absence and presence of 1 μM α-MSH. The cpm obtained in the presence of metallopeptides of this invention were normalized with respect to 100% specific binding to determine the percent inhibition of ^125I-NDP-MSH binding. Each assay was conducted in triplicate.
# T1 sequence (P32245 whole entry): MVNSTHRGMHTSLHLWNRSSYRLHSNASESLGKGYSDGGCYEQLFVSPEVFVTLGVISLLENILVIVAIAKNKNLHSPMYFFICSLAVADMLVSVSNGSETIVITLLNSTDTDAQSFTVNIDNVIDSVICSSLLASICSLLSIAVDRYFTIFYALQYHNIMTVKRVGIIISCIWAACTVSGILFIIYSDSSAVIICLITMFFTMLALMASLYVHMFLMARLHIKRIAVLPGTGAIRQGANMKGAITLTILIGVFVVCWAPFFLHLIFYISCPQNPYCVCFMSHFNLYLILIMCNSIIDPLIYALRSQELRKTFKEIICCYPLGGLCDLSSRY
row,Percent Inhibition at 1 μM MC4-R [%],Substance
1,38,Heptanoyl-S(Bn)[dPhe(4-Cl)]RC-NH2
2,23,Ac-[Nle]AH[dF]CR-OH
3,27,Ac-[Nle]AH[dF]RGC-OH
4,37,Ac-[Nle]AH[dF]RC-OH

# Biological target: T2, hMC5-R (Homo sapiens, UniProt P33032)
# T2 construct: expressed in transfected cells
# Test: Competitive inhibition binding assay, 125I-NDP-MSH, hMC5-R
# Settings: 1 μM metallopeptide; 0.4 nM 125I-NDP-MSH; hMC5-R membranes
# Experimental: as §1
# T2 sequence (P33032 whole entry): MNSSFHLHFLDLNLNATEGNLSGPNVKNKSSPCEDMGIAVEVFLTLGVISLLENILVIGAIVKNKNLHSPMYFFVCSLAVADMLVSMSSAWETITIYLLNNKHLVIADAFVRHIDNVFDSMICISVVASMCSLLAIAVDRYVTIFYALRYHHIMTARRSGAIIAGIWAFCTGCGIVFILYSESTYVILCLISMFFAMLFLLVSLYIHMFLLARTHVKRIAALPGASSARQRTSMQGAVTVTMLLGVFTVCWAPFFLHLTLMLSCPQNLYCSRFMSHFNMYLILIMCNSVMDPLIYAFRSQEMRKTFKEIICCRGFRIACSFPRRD
row,Percent Inhibition at 1 μM MC5-R [%],Substance
1,26,Heptanoyl-S(Bn)[dPhe(4-Cl)]RC-NH2
2,9,Ac-[Nle]AH[dF]CR-OH
3,23,Ac-[Nle]AH[dF]RGC-OH
4,12,Ac-[Nle]AH[dF]RC-OH

# Biological target: T3, MC1-R (B-16 mouse melanoma cells) (Mus musculus, UniProt Q01727)
# T3 construct: membranes prepared from hMC3-R, hMC4-R, hMC5-R, and B-16 mouse melanoma cells (containing MC1-R); endogenous in cells; host or cells: B-16 mouse melanoma cells
# Test: Competitive inhibition binding assay, 125I-NDP-MSH, MC1-R
# Settings: 1 μM metallopeptide; 0.2 nM 125I-NDP-MSH; B-16 mouse melanoma cell membranes
# Experimental: as §1
# T3 sequence (Q01727 whole entry): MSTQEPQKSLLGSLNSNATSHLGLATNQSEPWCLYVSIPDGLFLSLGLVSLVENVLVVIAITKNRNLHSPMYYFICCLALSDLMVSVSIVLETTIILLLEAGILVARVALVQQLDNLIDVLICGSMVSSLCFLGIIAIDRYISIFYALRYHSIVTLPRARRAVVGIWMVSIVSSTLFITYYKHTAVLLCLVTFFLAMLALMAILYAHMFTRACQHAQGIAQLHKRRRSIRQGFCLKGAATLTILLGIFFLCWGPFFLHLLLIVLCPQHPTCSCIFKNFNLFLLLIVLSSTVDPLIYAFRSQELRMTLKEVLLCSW
row,Percent Inhibition at 1 μM MC1-R [%],Substance
1,30,Heptanoyl-S(Bn)[dPhe(4-Cl)]RC-NH2
2,14,Ac-[Nle]AH[dF]CR-OH
3,26,Ac-[Nle]AH[dF]RGC-OH
4,18,Ac-[Nle]AH[dF]RC-OH

# Biological target: T4, hMC3-R (Homo sapiens, UniProt P41968)
# T4 construct: expressed in transfected cells
# Test: Competitive inhibition binding assay, 125I-NDP-MSH, hMC3-R
# Settings: 1 μM metallopeptide; 0.4 nM 125I-NDP-MSH; hMC3-R membranes
# Experimental: as §1
# T4 sequence (P41968 whole entry): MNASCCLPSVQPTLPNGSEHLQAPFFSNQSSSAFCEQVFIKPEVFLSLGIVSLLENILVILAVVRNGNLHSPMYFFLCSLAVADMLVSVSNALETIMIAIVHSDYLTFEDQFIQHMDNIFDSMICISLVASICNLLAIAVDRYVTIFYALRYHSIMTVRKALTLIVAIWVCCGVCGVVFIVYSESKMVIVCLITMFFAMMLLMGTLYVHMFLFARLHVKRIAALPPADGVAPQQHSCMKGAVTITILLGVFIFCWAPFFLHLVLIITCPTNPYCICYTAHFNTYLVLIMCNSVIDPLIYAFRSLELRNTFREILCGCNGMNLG
row,Percent Inhibition at 1 μM MC3-R [%],Substance
1,13,Heptanoyl-S(Bn)[dPhe(4-Cl)]RC-NH2
2,0,Ac-[Nle]AH[dF]CR-OH
3,3,Ac-[Nle]AH[dF]RGC-OH
4,0,Ac-[Nle]AH[dF]RC-OH
